Assay results taken from patent US8106023B2, “1,4-benzothiepin-1, 1-dioxide derivatives with improved properties method for producing the same, drugs containing said compounds and the use thereof” (Sanofi-Aventis Deutschland GmbH, priority 2006, dated 2012).

Biological target: T1, human IBAT (Homo sapiens, UniProt Q12908)
T1 construct: Bases 599 to 1645 correspond to the complete coding region of human IBAT; expressed in transfected cells; pcDNA1 vector
T1 sequence (Q12908 1-348): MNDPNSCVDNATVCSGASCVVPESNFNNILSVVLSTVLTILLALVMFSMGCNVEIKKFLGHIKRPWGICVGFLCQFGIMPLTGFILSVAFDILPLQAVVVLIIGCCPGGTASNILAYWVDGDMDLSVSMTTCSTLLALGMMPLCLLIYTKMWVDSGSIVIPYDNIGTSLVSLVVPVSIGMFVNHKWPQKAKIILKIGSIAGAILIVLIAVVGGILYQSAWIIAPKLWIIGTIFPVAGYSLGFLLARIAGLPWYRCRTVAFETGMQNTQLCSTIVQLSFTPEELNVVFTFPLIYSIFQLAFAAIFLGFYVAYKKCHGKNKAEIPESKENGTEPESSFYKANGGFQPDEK
Experiment: in vitro IBAT inhibition assay: IBAT-dependent uptake of [3H]-taurocholic acid into CHO-hIBAT cells
Format: cell-based
Details: 10 μM taurocholic acid, 60 min at room temperature, read-out: IC-50 (human IBAT)
Procedure: The cell clone with the highest uptake activity for [^3H]-TCA, referred to hereinafter as CHO-hIBAT, was selected for the further assays and further cultured in the presence of 400 μg/ml Geneticin.
3. Measurement of the Inhibitory Effect of the Compound of the Invention on the IBAT-Dependent Uptake of Taurocholic Acid into Cells
CHO-hIBAT cells were seeded in a concentration of 40 000 cells per well in poly-D-lysine-coated 96-well plates in cell culture medium and cultured for 24 h. […] Finally, 100 μl of scintillation fluid were added to each well, and the radioactivity taken up into the cells was determined in a MicroBeta Scintillation Microplate Reader from Wallac.
The half-maximum inhibitory effect of the test compound (IC50 value, inhibitory concentration 50) was determined in the following way: • 1. […] This is the measurement in the absence of substance, measured in sodium-containing transport assay buffer. • 2. […] This is the measurement in the absence of substance, measured in sodium-free transport assay buffer. • 3. […]

SMILES	IC50 [nM]
CCCC[C@]1(CC)CS(=O)(=O)c2ccc(N(C)C)cc2[C@@H](c2cccc(NC(=O)N[C@@H]3O[C@H](CO)[C@@H](O)[C@H](O)[C@H]3O)c2)[C@H]1O [Example 1]	2.5
CCCCC1(CCCC)CS(=O)(=O)c2ccc(N(C)C)cc2[C@@H](c2cccc(NC(=O)N[C@@H]3O[C@H](CO)[C@@H](O)[C@H](O)[C@H]3O)c2)[C@H]1O [Example 2]	6
